According to ChEMBL document CHEMBL1123652, “Optimization and in vivo evaluations of a series of small, potent, and specific renin inhibitors containing a novel Leu-Val replacement” (J Med Chem, 1987):

Columns and labels:
[1] = tested on: Monkey; test: Inhibition of Plasma renin activity was observed in male cynomolgus monkey at dose of 10 mg/kg; format: functional, Cercopithecidae
[2] = tested on: Rattus norvegicus; test: Percent radioactivity in excreta of rats 24 hr following intravenous administration in urine; format: ADME, organism-based; conditions: in vivo
[3] = Percent of [3H]- histidine found in 24 hr urine samples after intraduodenal administration; format: ADME; conditions: other
[4] = tested on: Monkey; test: Heart rate determined at dosage of 10 mg/kg in male cynomolgus monkey; format: functional, Cercopithecidae
[5] = Percent of [3H]- histidine found in 24 hr urine samples after intravenous administration; format: ADME
[6] = tested on: Rattus norvegicus; test: Percent radioactivity in excreta of rats 24 h following intravenous administration in feces; format: ADME, organism-based; conditions: in vivo
[7] = tested on: Monkey; test: Heart rate determined at dosage of 1.0 mg/kg in male cynomolgus monkey; format: functional, Cercopithecidae
[8] = tested on: Rattus norvegicus; test: Percent radioactivity in excreta of rats 24 hr following intraduodenal administration of the compound in urine; format: ADME, organism-based; conditions: in vivo, other
[9] = target: T1, Cathepsin D (Bos taurus) (UniProt P80209); test: Evaluated for the percentage of inhibition of bovine cathepsin D at E-5M concentration
T1 sequence (whole entry): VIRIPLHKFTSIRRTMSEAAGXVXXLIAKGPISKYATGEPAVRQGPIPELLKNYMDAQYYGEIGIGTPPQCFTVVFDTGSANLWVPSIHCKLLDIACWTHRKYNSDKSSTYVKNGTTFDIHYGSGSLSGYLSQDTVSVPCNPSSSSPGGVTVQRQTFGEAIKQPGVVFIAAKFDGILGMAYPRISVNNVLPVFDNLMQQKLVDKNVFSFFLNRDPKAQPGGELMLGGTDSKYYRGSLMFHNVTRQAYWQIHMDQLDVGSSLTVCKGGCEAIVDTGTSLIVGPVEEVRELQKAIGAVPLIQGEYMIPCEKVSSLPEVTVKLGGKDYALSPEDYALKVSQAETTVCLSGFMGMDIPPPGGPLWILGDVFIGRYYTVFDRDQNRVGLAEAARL

[10] = tested on: Monkey; test: Mean blood pressure was measured in salt depleted male cynomolgus monkey at dose of 10 mg/kg intravenously; format: functional, Cercopithecidae; conditions: route intravenous
[11] = tested on: Monkey; test: Mean blood pressure was measured in salt depleted male cynomolgus monkey at dose of 1.0 mg/kg intravenously; format: functional, Cercopithecidae; conditions: route intravenous
[12] = target: T2, Renin (Homo sapiens, UniProt P00797); test: Evaluated in vitro for inhibitory potency against renin.
T2 sequence (P00797 whole entry): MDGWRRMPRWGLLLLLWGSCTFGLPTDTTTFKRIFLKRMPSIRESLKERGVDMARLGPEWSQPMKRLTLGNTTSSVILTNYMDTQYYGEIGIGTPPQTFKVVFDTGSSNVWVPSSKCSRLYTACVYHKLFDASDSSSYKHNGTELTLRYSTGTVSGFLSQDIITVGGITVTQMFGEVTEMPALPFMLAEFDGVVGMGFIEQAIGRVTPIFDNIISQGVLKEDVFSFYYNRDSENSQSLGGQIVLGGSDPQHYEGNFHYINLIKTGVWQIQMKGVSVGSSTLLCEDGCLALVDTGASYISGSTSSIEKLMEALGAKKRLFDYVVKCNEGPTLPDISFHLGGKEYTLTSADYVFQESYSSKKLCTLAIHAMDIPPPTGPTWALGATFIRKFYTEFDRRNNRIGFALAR

[13] = target: Pepsin A (Sus scrofa) (UniProt P00791); test: Evaluated for the percentage of inhibition of porcine pepsin at E-5M concentration
Pepsin A (Sus scrofa), sequence (P00791 60-385 limits assumed): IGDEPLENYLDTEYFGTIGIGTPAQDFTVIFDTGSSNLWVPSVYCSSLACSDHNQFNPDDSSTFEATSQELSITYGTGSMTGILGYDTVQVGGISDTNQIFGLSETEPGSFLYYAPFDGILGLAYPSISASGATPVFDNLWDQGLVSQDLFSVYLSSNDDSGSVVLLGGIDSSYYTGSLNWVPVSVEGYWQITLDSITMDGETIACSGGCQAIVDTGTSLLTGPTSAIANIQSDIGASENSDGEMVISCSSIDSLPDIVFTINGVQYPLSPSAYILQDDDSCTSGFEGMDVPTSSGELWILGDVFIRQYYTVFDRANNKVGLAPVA

[14] = Percent of radiolabel found in 24 hr urine samples after intravenous administration; format: ADME
[15] = tested on: Rattus norvegicus; test: Percent radioactivity in excreta of rats 24 hr following intraduodenal administration of the compound in feces; format: ADME, organism-based; conditions: in vivo, other
[16] = tested on: Monkey; test: Inhibition of Plasma renin activity was observed in male cynomolgus monkey at dose of 1.0 mg/kg; format: functional, Cercopithecidae
[17] = Percent of compound found in 24 hr urine samples after intraduodenal administration; format: ADME; conditions: read-out: Activity
[18] = Percent of radiolabel found in 24 hr urine samples after intraduodenal administration; format: ADME; conditions: other
[19] = Percent of compound found in 24 hr urine samples after, intravenous administration; format: ADME; conditions: read-out: Activity
[20] = target: T3, Renin (Homo sapiens) (UniProt P00797); test: Evaluated in vitro for inhibitory potency against renin at 10e-5 M
T3 sequence (whole entry): T2 sequence (P00797 whole entry)

Activity [2] [%]	Activity [3] [%]	Activity [5] [%]	Activity [6] [%]	Activity [8] [%]	inhibition [9] [%]	IC50 [12] [nM]	inhibition [13] [%]	Activity [14] [%]	Activity [15] [%]	dose excreted at 24 h [17] [%]	Activity [18] [%]	dose excreted at 24 h [19] [%]	inhibition [20] [%]	SMILES	Activity [1] [ng/mL/h]	Heart rate [4] [beats min-1]	Heart rate [7] [beats min-1]	Mean blood pressure [10] [mmHg]	Mean blood pressure [11] [mmHg]	Activity [16] [ng/mL/h]
5	70	30	34.5	0.9	0	2.5	0	5	26.6	30	1	70		CC(C)(C)OC(=O)N[C@@H](Cc1ccccc1)C(=O)N[C@@H](Cc1c[nH]cn1)C(=O)N[C@@H](CC1CCCCC1)[C@@H](O)CS(=O)(=O)C1CCCCC1	107.7	197	140	73	68	35.3
													5	CC(C)(C)OC(=O)NC(Cc1c[nH]cn1)C(=O)N[C@@H](CC1CCCCC1)[C@@H](O)CS(=O)(=O)C1CCCCC1 (stereo not given in full)						
